# According to patent US20150125506A1, “RETINAL PIGMENT EPITHELIAL CELLS DIFFERENTIATED FROM EMBRYONIC STEM CELLS WITH NICOTINAMIDE AND ACTIVIN A” (HADASIT MEDICAL RESEARCH SERVICES AND DEVELOPMENT LTD., priority 2007, published 2015):
# Experiments:
# Type in all cases: cell-based, human
# hESCs = assay: Differentiation of hESC free-floating clusters into pigmented (RPE) cells, counted as pigmented clusters and cells; settings: for appearance of clusters harboring pigmented cells: factor added in presence of NA; for percentage of clusters that included pigmented cells / percentage of pigmented cells from the total number of cells: NA with activin A vs NA without activin A
# Procedure: Human ESC (HES1 cell line) and hESCs engineered by lentiviral vector to constitutively express eGFP [Gropp M, Itsykson P, Singer O, Ben-Hur T, Reinhartz E, Galun E, and Reubinoff B E. Stable genetic modification of human embryonic stem cells by lentiviral vectors. Molecular Therapy 7:281-7 (2003)] were cultured on human foreskin fibroblasts feeder layers in KO medium (KOM) consisting of 86% KO-DMEM (Gibco, Invitrogen, Gaithersburg, Md.), 14% KOSR (Gibco), 1 mM glutamine, 1% nonessential amino acids, 50 units/ml penicillin (Gibco), 50 μg/ml streptomycin, (Gibco) and 4 ng/ml bFGF (R&D Systems, Inc., Minneapolis, Minn.). hES cells were weekly passaged with type IV collagenase (1 mg/ml; Gibco) and plated onto a fresh feeder layer. A week before induction of differentiation, the cells were passaged by dissociation into nearly a single-cell suspension with Ca/Mg^++-free PBS supplemented with 0.05% EDTA (Biological Industries, Beit Haemek, Israel) and were re-plated on the feeders.
# (§1) Six-eight days after plating the hES cells that were dissociated into single cells as above; they were removed from the feeders by treatment with type IV collagenase. The clumps were cultured for various periods up to 12 weeks in suspension within bacteriological dishes precoated with 0.1% low melting temperature agarose in KO medium (KOM) consisting of 86% KO-DMEM, 14% KOSR, 1 mM glutamine, 1% nonessential amino acids, 50 units/ml penicillin, and 50 μg/ml streptomycin, in the presence or absence of 10 mM nicotinamide (NA) (Sigma, St. Louis, Mo., USA). In some experiments the medium used was Neurobasal™ medium (Gibco) supplemented with N2 supplement (1:100) (Gibco) (NN medium), which was substituted after 1 week with DMEM/F12 (Gibco) supplemented with B27 (1:50) (Gibco).
# (§2) Human ESCs were allowed to differentiate as free-floating clusters in KOM as above for up to six weeks in the presence of nicotinamide (NA) 10 mM. After the first week or 2 weeks of differentiation, cultures were supplemented with activin A 20-180 ng/ml (PeproTech Inc, Rocky Hill, N.J.), with TGFβ3 (1 ng/ml; R&D Systems Inc, Minneapolis, Minn.) with TGFβ1 (1 ng/ml-20 ng/ml; R&D Systems Inc) or with SB431542 (5 μM-50 μM, Sigma). Control cultures were supplemented with NA alone.
# (§3) Human ESCs in suspension in KOM were also supplemented after one week with the bone morphogenetic protein (BMP) antagonist noggin (700 ng/ml R&D Systems Inc, Minneapolis, Minn.) in the presence and absence of NA, or during the 3rd and 4th weeks with TGFβ (20 ng/ml PeproTech Inc) in the presence of NA and allowed to differentiate up to an age of 6 weeks as free-floating clusters in suspension.
# hESC clusters [1] = assay: RT-PCR and Real-time PCR of marker transcripts in differentiating hESC clusters; settings: for enhancement of MiTF-A expression by NA supplementation / increase of RPE65 expression with vs without NA: 12 weeks
# Procedure: as §1, §2, §3
# Total RNA was extracted from hESCs grown under serum-free conditions (1 week after passage), and at sequential time points up to 8 weeks during culturing of hESC-derived clusters in the presence or absence of 10 mM nicotinamide and with or without supplementation with TGFβ-superfamily growth factors or antagonists. The RNA was isolated using TRIzol reagent (Invitrogen, http://www.invitrogen.com) or TRI-Reagent (Sigma). cDNA synthesis was carried out using Moloney murine leukemia virus reverse transcriptase (M-MLV RT) and random primers, according to the manufacturer's instructions (Promega Corporation, Madison, Wis., http://www. promega.com). Polymerase chain reaction (PCR) was carried out using standard protocols with Taq DNA Polymerase (Gibco-BRL). Amplification conditions were as follows: denaturation at 94° C. for 15 seconds, annealing at 55° C. for 30 seconds, and extension at 72° C. for 45 seconds. The number of cycles varied between 18 and 40, depending on particular mRNA abundance. Primer human sequences for identifying human gene transcripts (forward and reverse 5′-3′) and the length of the amplified products were as follows (SEQ ID NOs. 1-12):
# For Real-time PCR the levels of transcripts were monitored using TaqMan primers and probes that were derived from the commercially available TaqMan® Assays-on-Demand Gene Expression Products (Applied Biosystems, Foster City, Calif.): Oct4, ID Hs01895061; Musashi, ID Hs01045894; Pax6, ID Hs00240871; Six3, ID Hs00193667; Rx1, ID Hs00429459; Chx10, ID Hs01584048; MiTF-A, ID Hs01115553; MiTF-total, ID Hs01115557; Bestrophin, ID Hs00188249; RPE65, ID Hs00165642; Sox10, ID Hs00366918; Crx, ID Hs00230899. Quantitative PCR analysis was performed using an ABI Prism 7000HT and ABI Prism 7900HT Sequence Detection Systems and TaqMan® Universal PCR Master Mix (Applied Biosystems) according to the manufacturer's protocol. Housekeeping gene β-glucuronidase (GusB, assay ID Hs99999908) was selected as an internal reference for normalization in the Real-Time RT-PCR quantification analysis and the relative expression level of each gene is shown as a relative value when the expression level of day 0 (or untreated cells) was set at 1. Amplification reactions were carried out in duplicates or triplicates according to manufacturer's protocol (Applied Biosystems).
# hESC clusters [2] = assay: Indirect immunofluorescent staining of differentiated cells within clusters
# Procedure: To characterize the immunophenotype of cells within the aggregates, the clusters cultivated for 2, 4, 6 or 8 weeks were gently dissociated either with 0.04% trypsin/0.04% EDTA or with Papain Dissociation System (Worthington Biochemical, Lakewood, N.J.), and the resulting small clumps and single cells were plated in KO medium supplemented with NA on poly-D-lysine (30-70 kDa, 10-20 μg/ml) alone or supplemented with either laminin (4 μg/ml) or fibronectin (10-20 μg/ml; all from Sigma, St. Louis, http://www.sigmaaldrich.com). The cells were fixed with 4% paraformaldehyde after 2 hours and examined for the expression of nestin (1:200), polysialic acid NCAM (PSA-NCAM) (1:100), Musashi (1:200; all from Chemicon, Temecula, from CA), Pax6 (DSHB, 1:100 or Chemicon, 1:250), Otx2 (Chemicon, 1:200), MiTF (Lab Vision Corporation, Fremont, Calif.; mouse IgG1, 1:50).
# hESC-derived clusters = assay: Flow cytometry of PSA-NCAM and TRA-1-60 positive cells in hESC-derived clusters
# Procedure: Flow cytometric analysis was performed to determine the number of PSA-NCAM and TRA-1-60 positive cells at different time points within the hESC-derived clusters differentiating with or without nicotinamide supplementation. The clusters were dissociated with 0.04% Trypsin/0.04% EDTA. The single cells were then stained with anti-PSA-NCAM or anti-Tra-1-60 antibodies (both from Chemicon; 1:100), detected with goat anti-mouse immunoglobulins conjugated to FITC (Dako; 1:100), and counterstained with the cell viability dye Propidium iodide (0.005 mg/ml; Sigma) Control cells were incubated only with a secondary antibody. The cell-associated immunoreactivity was analyzed with FACScalibur (Becton Dickinson Immunocytometry Systems), using CellQuest software.
# [3] = 8 weeks of differentiation in presence of NA
# [4] = 2 weeks old clusters, RT-PCR, with vs without NA
# [5] = 6 weeks of differentiation, KOM, with vs without NA, Real-time RT-PCR
# [6] = at 4 weeks, NA-treated clusters
# [7] = Q-PCR time course, 2 weeks activin A treatment with NA vs NA alone
# [8] = TGFβ3 added in presence of NA, 6 weeks
molecule,measurement,setting,value
NC(=O)c1ccc(-c2nc(-c3ccc4c(c3)OCO4)c(-c3ccccn3)[nH]2)cc1 [SB431542],appearance of pigmented clusters,"hESCs; 4 weeks, added together with activin A and NA",significantly decreased
bFGF: basic FGF,appearance of clusters harboring pigmented cells,hESCs,abolished
"TGFβ1: transforming growth factor-β protein subtype, member of the TGFβ superfamily",appearance of clusters harboring pigmented cells,hESCs,significantly enhanced
"NC(=O)c1cccnc1 [NA, nicotinamide]",percentage of clusters that included pigmented cells,hESCs; 4 weeks,17.7±3.2%
same,percentage of pigmented cells from the total number of cells,hESCs; 4 weeks,2.4±1.2%
same,percentage of cells that were pigmented within clusters,hESCs; [3],5.7±1.0%
same,percentage of clusters that had pigmented areas,"hESCs; after 8 weeks of differentiation, KO medium with NA 10 mM",72.9±2.5%
same,expression of activin receptor ACTRIB,hESC clusters [1]; [4],high
same,expression of activin receptor ACTRIIB,hESC clusters [1]; [4],high
same,increase of MiTF-A expression in presence of NA,hESC clusters [1]; [5],nearly two-fold
same,increase of RPE65 expression in presence of NA,hESC clusters [1]; [5],~30 fold
same,augmentation of RPE65 expression,"hESC clusters [1]; 8-week time course, NA-treated vs spontaneously differentiating clusters",> 100 folds
same,enhancement of MiTF-A expression by NA supplementation,hESC clusters [1]; KOM,approximately 3 fold
same,increase of RPE65 expression with vs without NA,hESC clusters [1]; KOM,approximately doubled
same,expression of Chx10,hESC clusters [1]; NA treatment vs no NA,increased
same,expression of Crx (photoreceptor progenitor marker),hESC clusters [1]; NA treatment vs no NA,increased
same,expression of Rx1 transcripts,hESC clusters [1]; NA treatment vs no NA,increased
same,expression of Six3 transcripts,hESC clusters [1]; NA treatment vs no NA,increased
same,expression of Bestrophin transcripts,hESC clusters [1]; NA-treated cultures vs spontaneously differentiating hESC clusters,higher
same,enhancement of MiTF-A expression by NA supplementation,hESC clusters [1]; NN/DMEM medium,approximately 2.5 fold
same,increase of RPE65 expression with vs without NA,hESC clusters [1]; NN/DMEM medium,~6 fold
same,expression of Pax6 transcripts,"hESC clusters [1]; after 2-6 weeks of differentiation, with vs without NA",significantly increased
same,expression of Otx2 transcripts,"hESC clusters [1]; after 2 weeks of differentiation, with vs without NA",significantly increased
same,expression of Musashi transcripts,"hESC clusters [1]; after 4-6 weeks of differentiation, with vs without NA",significantly increased
same,expression of transcripts of the early RPE marker MiTF A,hESC clusters [1]; time course in presence of NA,induced after 4 weeks
same,expression of Oct4 (marker of undifferentiated hESCs),"hESC clusters [1]; time course, with vs without NA",declined more rapidly
same,expression of Sox10 (melanocyte developmental marker),"hESC clusters [1]; with vs without NA, M51 melanoma cell line as control",not dependent on NA supplementation
same,percentage of cells expressing the early RPE marker MiTF,hESC clusters [2]; [3],5.4±1.1%
same,percentage of cells expressing Musashi (immunofluorescence),hESC clusters [2]; [6],71.4%
same,percentage of cells expressing PSA-NCAM (immunofluorescence),hESC clusters [2]; [6],74.2±4.1%
same,percentage of cells expressing nestin (immunofluorescence),hESC clusters [2]; [6],55.9±10.1%
same,expression of TRA-1-60 (surface marker of undifferentiated cells),"hESC-derived clusters; FACS time course, NA treated vs untreated",declined more rapidly
same,percentage of cells expressing PSA-NCAM (FACS),hESC-derived clusters; after 4 weeks of differentiation with NA,81.4±6.3%
activin A,percentage of clusters that included pigmented cells,hESCs; 4 weeks,50.7±6.5%
same,percentage of pigmented cells from the total number of cells,hESCs; 4 weeks,9.9±1.4%
same,concentration with optimal augmenting effect on percentage of pigmented cells and expression of Bestrophin and RPE65,"hESCs; activin A studied at various concentrations, in presence of NA",140 ng/mL
same,pigmentation of clusters of pigmented cells,hESCs; developed in presence of activin A and NA vs NA alone,darker
same,increase of the percentage of pigmented cells in presence of activin A,hESCs; in presence of NA,5-6 folds
same,expression of MiTF-A with activin A supplementation,"hESC clusters [1]; 6 weeks, in presence of NA, vs NA alone",not affected
same,increase of RPE65 expression by activin A treatment,"hESC clusters [1]; 6 weeks, in presence of NA, vs NA alone (FIG. 4D)",over five-fold
same,increase of Bestrophin expression by activin A treatment,"hESC clusters [1]; 6 weeks, in presence of NA, vs NA alone (FIG. 4E)",over four-fold
same,expression of RPE marker Bestrophin,hESC clusters [1]; [7],significantly increased
same,expression of retinal progenitor marker Chx10,hESC clusters [1]; [7],significantly increased
same,expression of retinal progenitor marker Rx1,hESC clusters [1]; [7],significantly increased
same,expression level of total MiTF-isoforms,"hESC clusters [1]; at 4 weeks of differentiation, activin A with NA vs NA alone",increased
same,increase of bestrophin expression in presence of activin A,hESC clusters [1]; in presence of NA,about 10 folds
"TGFβ3: transforming growth factor-β protein subtype, member of the TGFβ superfamily (protein, UniProt P10600 301-412, looked up, Transforming growth factor beta-3, transforming growth factor-β protein subtype, member of the TGFβ superfamily) Transforming growth factor …: ALDTNYCFRNLEENCCVRPLYIDFRQDLGWKWVHEPKGYYANFCSGPCPYLRSADTTHSTVLGLYNTLNPEASASPCCVPQDLEPLTILYYVGRTPKVEQLSNMVVKSCKCS",expression levels of RPE65,hESC clusters [1]; [8],but not of RPE65
same,expression levels of transcripts of MiTF-A,hESC clusters [1]; [8],significantly augmented
"noggin: bone morphogenetic protein (BMP) antagonist (protein, UniProt Q13253 28-232, looked up) Noggin: QHYLHIRPAPSDNLPLVDLIEHPDPIFDPKEKDLNETLLRSLLGGHYDPGFMATSPPEDRPGGGGGAAGGAEDLAELDQLLRQRPSGAMPSEIKGLEFSEGLAQGKKQRLSKKLRRKLQMWLWSQTFCPVLYAWNDLGSRFWPRYVKVGSCFSKRSCSVPEGMVCKPSKSVHLTVLRWRCQRRGGQRCGWIPIQYPIISECKCSC",differentiation of hESC clusters into pigmented RPE cells,"hESCs; noggin, absence of NA, 6 weeks",blocked
same,differentiation into pigmented cells,"hESCs; noggin, medium also supplemented with NA, 6 weeks",blocked
same,expression of MiTF-A,"hESC clusters [1]; noggin, both presence and absence of NA, Real-Time RT-PCR",significantly reduced
